Legend:
SOX1+/SOX2+/Nestin+ NSCs = assay: Long-term maintenance culture of spinal cord NSCs; type: cell-based, human; settings: due to differentiation, data not shown
[1] = test system: neurons differentiated from H9-derived spinal cord NSCs; assay: Whole-cell patch clamp electrophysiology of neurons differentiated from H9-derived spinal cord NSCs; settings: spontaneous postsynaptic currents, all three drugs

Compound	culture maintenance over time on omission of the component from maintenance medium (SOX1+/SOX2+/Nestin+ NSCs)	spiking of neuron after glutamate receptor and GABA-A receptor antagonists [1]
CNC1CCC(N(Cc2cccc(-c3ccncc3)c2)C(=O)c2sc3c(F)ccc(F)c3c2Cl)CC1 (centres unmarked) [Hh-Ag1.5]	failure to sustain cultures	–
O=[N+]([O-])c1cc2nc(O)c(O)nc2cc1[N+](=O)[O-] [DNQX]	–	no change in spiking
Cc1c[nH]c(-c2cnc(NCCNc3ccc(C#N)cn3)nc2-c2ccc(Cl)cc2Cl)n1 [CHIR, CHIR99021]	failure to sustain cultures	–
N[C@@H](CCCP(=O)(O)O)C(=O)O [APV]	–	no change in spiking
picrotoxin	–	no change in spiking
